Measurements as given in patent US6486136B1, “Combinations comprising VX478, zidovudine and/or 1592U89 for use in the treatment of HIV” (SmithKline Beecham Corporation, priority 1996, dated 2002).
Read-outs that look alike come from different tables or passages of the source.

System: HIV-1 Strain IIIB
Assay: Double combination dose response matrices in MT2-cells infected with HIV-1 Strain IIIB (MacSynergy II / Greco analysis)
Type: cell-based
Details: Greco model estimate; for EC50: MT2-cells, HIV-1 IIIB, medium with 10% fetal bovine serum plus α1 acid glycoprotein (1 mg/ml) and albumin (40 mg/ml)
Protocol: Triplicate in vitro dose response matrices were prepared using MT2-cells infected with HIV-1 Strain IIIB. In order to account for the effects of protein binding, tissue culture medium with 10% fetal bovine serum was supplemented with the human serum proteins α1, acid glycoprotein (1 mg/ml) and albumin (40 mg/ml). The 3-D drug interaction surface for 1592U89 and 141W94 was constructed using the program MacSynergy II. As analyzed relative to a Bliss Independence null reference model, this combination was synergistic with volumes of synergy exceeding 100 (99% confidence). Analysis of the data set with a fully parametric form of an equation for the quantitation of drug interaction developed by Greco et al. also indicated synergy. The parameters, with 95% confidence intervals are shown below: EC50 is the half maximal response concentration. “m” is the slope parameter. Alpha is the synergy parameter.

In the case of CC(C)CN(C[C@@H](O)[C@H](Cc1ccccc1)NC(=O)O[C@H]1CCOC1)S(=O)(=O)c1ccc(N)cc1 (relative stereo) [141W94, 3S-[3R*(1R*,2S*)]-[3-[[(4-aminophenyl)sulphonyl](2-methylpropyl)-amino]-2-hydroxy-1-phenylmethyl)propyl]carbamic acid, tetrahydro-3-furanyl ester], the EC50 (Human immunodeficiency virus 1, read-out: EC50,141w) is reported as 394 nM and the “m141w (slope parameter)” value (same matrix) is reported as 2.20.

For Nc1nc(NC2CC2)c2ncn([C@H]3C=C[C@@H](CO)C3)c2n1 (relative stereo) [1592U89, (1S,4R)-cis-4-[2-amino-6-(cyclopropylamino)-9H-purin-9-yl]-2-cyclopentene-1-methanol], the EC50 (read-out: EC50,1592u) was 626 nM and the “m1592u (slope parameter)” value (same matrix) was 1.60.
